Assay results as given in the NIST ThermoML archive (doi:10.1016/j.jct.2016.06.012).

Assay: xn = mol fraction of the nth substance listed
Conditions: 100 kPa, Liquid; for viscosity: Capillary tube (Ostwald / Ubbelohde) method; for mass density: Vibrating tube method

CCn1cc[n+](C)c1C.O=S(=O)([N-]S(=O)(=O)C(F)(F)F)C(F)(F)F + O=C1CCCO1
Conditions	mass density [kg/m3]	viscosity [mPa·s]
293.15 K, x1 = 0.0493	1186.33	2.39
293.15 K, x1 = 0.1001	1232.87	3.16
293.15 K, x1 = 0.1526	1271.98	4.27
293.15 K, x1 = 0.2001	1301.42	5.28
293.15 K, x1 = 0.3001	1350.26	8.11
293.15 K, x1 = 0.4013	1387.19	12.59
293.15 K, x1 = 0.5004	1415.28	19.41
293.15 K, x1 = 0.5995	1437.76	29.23
293.15 K, x1 = 0.6929	1455.24	40.61
293.15 K, x1 = 0.814	1473.91	57.8
293.15 K, x1 = 0.9001	1485.09	71.36
293.15 K, x1 = 1	1496.32	89.27
298.15 K, x1 = 0.0493	1181.34	2.2
298.15 K, x1 = 0.1001	1227.92	2.88
298.15 K, x1 = 0.1526	1267.02	3.89
298.15 K, x1 = 0.2001	1296.47	4.75
298.15 K, x1 = 0.3001	1345.33	7.21
298.15 K, x1 = 0.4013	1382.26	10.79
298.15 K, x1 = 0.5004	1410.36	16.23
298.15 K, x1 = 0.5995	1432.85	23.73
298.15 K, x1 = 0.6929	1450.35	32.36
298.15 K, x1 = 0.814	1469.03	45.73
298.15 K, x1 = 0.9001	1480.21	56.03
298.15 K, x1 = 1	1491.47	70.77
303.15 K, x1 = 0.0493	1176.42	2.02
303.15 K, x1 = 0.1001	1222.97	2.64
303.15 K, x1 = 0.1526	1262.07	3.55
303.15 K, x1 = 0.2001	1291.53	4.31
303.15 K, x1 = 0.3001	1340.4	6.49
303.15 K, x1 = 0.4013	1377.35	9.66
303.15 K, x1 = 0.5004	1405.48	13.87
303.15 K, x1 = 0.5995	1427.99	19.69
303.15 K, x1 = 0.6929	1445.51	26.32
303.15 K, x1 = 0.814	1464.21	36.61
303.15 K, x1 = 0.9001	1475.4	45.12
303.15 K, x1 = 1	1486.67	57.02
308.15 K, x1 = 0.0493	1171.5	1.87
308.15 K, x1 = 0.1001	1218.03	2.42
308.15 K, x1 = 0.1526	1257.12	3.23
308.15 K, x1 = 0.2001	1286.58	3.92
308.15 K, x1 = 0.3001	1335.47	5.84
308.15 K, x1 = 0.4013	1372.45	8.44
308.15 K, x1 = 0.5004	1400.6	11.97
308.15 K, x1 = 0.5995	1423.13	16.7
308.15 K, x1 = 0.6929	1440.66	21.94
308.15 K, x1 = 0.814	1459.39	30.04
308.15 K, x1 = 0.9001	1470.6	36.72
308.15 K, x1 = 1	1481.87	46.6
313.15 K, x1 = 0.0493	1166.58	1.74
313.15 K, x1 = 0.1001	1213.09	2.24
313.15 K, x1 = 0.1526	1252.18	2.97
313.15 K, x1 = 0.2001	1281.64	3.59
313.15 K, x1 = 0.3001	1330.56	5.24
313.15 K, x1 = 0.4013	1367.56	7.44
313.15 K, x1 = 0.5004	1395.73	10.46
313.15 K, x1 = 0.5995	1418.28	14.19
313.15 K, x1 = 0.6929	1435.84	18.31
313.15 K, x1 = 0.814	1454.58	24.98
313.15 K, x1 = 0.9001	1465.81	30.3
313.15 K, x1 = 1	1477.09	38.62
318.15 K, x1 = 0.0493	1161.65	1.62
318.15 K, x1 = 0.1001	1208.15	2.07
318.15 K, x1 = 0.1526	1247.24	2.72
318.15 K, x1 = 0.2001	1276.71	3.27
318.15 K, x1 = 0.3001	1325.64	4.7
318.15 K, x1 = 0.4013	1362.67	6.63
318.15 K, x1 = 0.5004	1390.87	9.21
318.15 K, x1 = 0.5995	1413.44	12.26
318.15 K, x1 = 0.6929	1431.02	15.7
318.15 K, x1 = 0.814	1449.79	21.08
318.15 K, x1 = 0.9001	1461.03	25.54
318.15 K, x1 = 1	1472.32	32.33
323.15 K, x1 = 0.0493	1156.72	1.52
323.15 K, x1 = 0.1001	1203.21	1.9
323.15 K, x1 = 0.1526	1242.31	2.5
323.15 K, x1 = 0.2001	1271.78	3.02
323.15 K, x1 = 0.3001	1320.73	4.29
323.15 K, x1 = 0.4013	1357.79	6.05
323.15 K, x1 = 0.5004	1386.01	8.19
323.15 K, x1 = 0.5995	1408.61	10.68
323.15 K, x1 = 0.6929	1426.21	13.74
323.15 K, x1 = 0.814	1445.01	18.23
323.15 K, x1 = 0.9001	1456.26	21.94
323.15 K, x1 = 1	1467.56	27.06
